Here are results for one compound from patent EP3797781A1, “USE OF EC-7072 AND SYNERGIC COMPOSITIONS THEREOF IN TREATMENT OF CHRONIC LYMPHOCYTIC LEUKEMIA” (priority 2019, dated 2021).

Data set [1] concerns primary fibroblasts from healthy donors. The data set is described as follows: Cell death of primary fibroblasts by PI staining. As to conditions: 200 nM, 24 hours; n = 4. It counts as cell-based, human. The protocol: Effectiveness of EC-7072 against different B-cell malignancies was assessed by; • (i) incubating primary fibroblasts from healthy donors (n = 4) and HK-2 cells from healthy human adult kidney (n = 3) following treatment with MTA (200 nM) or EC-7072 (200 nM) for 24 hours. Cell death was evaluated by PI staining to obtain the percentages corresponding to the [PI^+] subset (Figure 5A) and the mean percentage of [PI^+] cells (Figure 5B); • (ii) treating MEC-1, GRANTA-519, Z-138, JVM-2, CA-46, Ramos, Raji and U266 cell lines (n = 3) following treatment with EC-7072 (500 nM) followed by incubation for 24 hours. Cell viability was assessed by DiOC6(3)/PI staining and normalized to control (DMSO) condition to obtain mean percentage of viable [DiOC6(3)^+] cells (Figure 5C).

The next data set deals with healthy B cells. In words: Viability of healthy B cells from healthy donors by DiOC6(3)/PI staining. Type of data set: cell-based, human. As to conditions: 200 nM, 24 hours; PBMCs from healthy donors (n = 20); Figure 1F. The protocol: Cell viability and apoptosis were evaluated by double-staining with the mitochondrial inner transmembrane potential (ΔΨm)-sensitive dye DiOC6(3) (3,3'-dihexyloxacarbocyanine iodide; Sigma-Aldrich) and the exclusion dye propidium iodide (PI; Immunostep), allowing identification of apoptotic [DiOC6(3)^low PI^-] and dead [PI^+] cells as per Proc. Natl. Acad. Sci. U.S.A. (2014) 111(8):3020-3025 and Methods Mol. Biol. (2016) 1419:1-16. Briefly, PBMCs were resuspended in culture medium containing 20 nM DiOC6(3) and incubated for 30 minutes at 37 °C. Then, PI (1 µg/mL) was added and cells were further incubated for 10 minutes at room temperature (RT). Cells were analyzed by flow cytometry considering DiOC6(3)^+PI^- cells as viable. In some experiments, apoptosis was evaluated by staining with Annexin V/PI. […]
The in vitro cytotoxic activity of EC-7072 against primary CLL cells was assessed by: • (i) incubating PBMCs isolated from patients with CLL (n = 13) following treatment with increasing concentrations of EC-7072 (0 - 400 nM) for 24 hours. Numbers of leukemia cells were evaluated by flow cytometry and normalized to their respective control (DMSO) condition for each individual patient to obtain percentage of leukemia cells (Figure 1A); • (ii) incubating PBMCs from patients with CLL (n = 10) with or without EC-7072 (100-400 nM) for 24 hours. […]

The structures appear in SMILES notation.

Consider `CO[C@@H]([C@@H]1Cc2cc3cc(O[C@H]4C[C@@H](O[C@H]5C[C@@H](O)[C@H](O)[C@@H](C)O5)[C@H](O)[C@@H](C)O4)c(C)c(O)c3c(O)c2C(=O)[C@H]1O[C@H]1C[C@@H](O[C@H]2C[C@@H](O[C@H]3C[C@](C)(O)[C@H](O)[C@@H](C)O3)[C@@H](O)[C@@H](C)O2)[C@H](O)[C@@H](C)O1)[C@@H](O)C(C)=O` [EC-7072, mithramycin SK], for which the “viability of primary human fibroblasts (PI^+ cells)” value in data set [1] is “did not markedly affect the viability”. Further, the “viability of healthy B cells” value in the data set on healthy B cells is recorded as “triggered death of normal B cells”.
